From PubChem BioAssay (NCI)
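96-well plates; 48 h exposure; 5 concentrations. Endpoints by linear interpolation between flanking doses. Not reached: highest tested concentration assigned. TGI denotes the concentration required for complete inhibition of growth.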

How the values were obtained:
Assay in all cases: NCI-60 cell line screen, 48 h
NCI-H23 lung = test system: NCI-H23 lung
XF 498 CNS = test system: XF 498 CNS
HOP-18 NSCLC = test system: HOP-18 NSCLC
SNB-75 CNS = test system: SNB-75 CNS
SR leukemia = test system: SR leukemia
SF-268 CNS = test system: SF-268 CNS
ACHN renal = test system: ACHN renal
T-47D breast = test system: T-47D breast
MOLT-4 leukemia = test system: MOLT-4 leukemia
HCC-2998 colon = test system: HCC-2998 colon
M14 melanoma = test system: M14 melanoma
786-0 renal = test system: 786-0 renal
COLO 205 colon = test system: COLO 205 colon
KM20L2 colon = test system: KM20L2 colon
UACC-62 melanoma = test system: UACC-62 melanoma
HOP-92 NSCLC = test system: HOP-92 NSCLC
TK-10 renal = test system: TK-10 renal
SN12C renal = test system: SN12C renal
HT29 colon = test system: HT29 colon
U251 CNS = test system: U251 CNS
HCT-15 colon = test system: HCT-15 colon
PC-3 prostate = test system: PC-3 prostate
BT-549 breast = test system: BT-549 breast
RXF 393 renal = test system: RXF 393 renal
NCI-H226 lung = test system: NCI-H226 lung
EKVX NSCLC = test system: EKVX NSCLC
SK-OV-3 ovarian = test system: SK-OV-3 ovarian
SW-620 colon = test system: SW-620 colon
OVCAR-4 ovarian = test system: OVCAR-4 ovarian
SF-539 CNS = test system: SF-539 CNS
MDA-MB-435 = test system: MDA-MB-435
UO-31 renal = test system: UO-31 renal
K-562 leukemia = test system: K-562 leukemia
HOP-62 NSCLC = test system: HOP-62 NSCLC
DMS 273 small cell lung = test system: DMS 273 small cell lung
OVCAR-3 ovarian = test system: OVCAR-3 ovarian
RPMI-8226 leukemia = test system: RPMI-8226 leukemia
SF-295 CNS = test system: SF-295 CNS
NCI/ADR-RES ovarian = test system: NCI/ADR-RES ovarian
A549 NSCLC = test system: A549 NSCLC
A498 renal = test system: A498 renal
SK-MEL-2 melanoma = test system: SK-MEL-2 melanoma
NCI-H460 lung = test system: NCI-H460 lung
M19-MEL melanoma = test system: M19-MEL melanoma
HS 578T breast = test system: HS 578T breast
OVCAR-8 ovarian = test system: OVCAR-8 ovarian
OVCAR-5 ovarian = test system: OVCAR-5 ovarian
IGROV1 ovarian = test system: IGROV1 ovarian
RXF-631 renal = test system: RXF-631 renal
CAKI-1 renal = test system: CAKI-1 renal
MDA-N = test system: MDA-N
UACC-257 melanoma = test system: UACC-257 melanoma
SK-MEL-5 melanoma = test system: SK-MEL-5 melanoma
MALME-3M melanoma = test system: MALME-3M melanoma
SNB-19 CNS = test system: SNB-19 CNS
MCF7 breast = test system: MCF7 breast
SK-MEL-28 melanoma = test system: SK-MEL-28 melanoma
HL-60(TB) leukemia = test system: HL-60(TB) leukemia
LXFL 529 NSCLC = test system: LXFL 529 NSCLC
CCRF-CEM leukemia = test system: CCRF-CEM leukemia
DMS 114 small cell lung = test system: DMS 114 small cell lung
MDA-MB-231 breast = test system: MDA-MB-231 breast
DU-145 prostate = test system: DU-145 prostate
KM12 colon = test system: KM12 colon
NCI-H522 lung = test system: NCI-H522 lung
HCT-116 colon = test system: HCT-116 colon
LOX IMVI melanoma = test system: LOX IMVI melanoma

`COc1cc(Nc2nc3c(N)cc(C(F)(F)F)cc3nc2-c2ccccc2)cc(OC)c1OC` showed a TGI (NCI-H23 lung) greater than 100 µM, a TGI (XF 498 CNS) of 47.9 µM and a TGI (HOP-18 NSCLC) greater than 81 µM. It also gave a TGI (SNB-75 CNS) of 53.8 µM, a TGI (SR leukemia) greater than 100 µM and a TGI (SF-268 CNS) greater than 100 µM. For the same compound, the TGI (ACHN renal) was greater than 100 µM, the TGI (T-47D breast) was greater than 83 µM and the TGI (MOLT-4 leukemia) was greater than 100 µM. The TGI (HCC-2998 colon) was greater than 100 µM, the TGI (M14 melanoma) was greater than 100 µM and the TGI (786-0 renal) was 74.4 µM. The TGI (COLO 205 colon) was greater than 100 µM, the TGI (KM20L2 colon) was 99.9 µM and the TGI (UACC-62 melanoma) was greater than 92.3 µM. The TGI (HOP-92 NSCLC) was 16.7 µM, the TGI (TK-10 renal) was greater than 95.4 µM and the TGI (SN12C renal) was greater than 100 µM. For the same compound, the TGI (HT29 colon) was greater than 100 µM, the TGI (U251 CNS) was greater than 89.2 µM and the TGI (HCT-15 colon) was greater than 100 µM. It also gave a TGI (PC-3 prostate) greater than 89.4 µM, a TGI (BT-549 breast) greater than 83.5 µM and a TGI (RXF 393 renal) of 36.2 µM. For the same compound, the TGI (NCI-H226 lung) was greater than 88.5 µM, the TGI (EKVX NSCLC) was greater than 100 µM and the TGI (SK-OV-3 ovarian) was greater than 92.2 µM. The TGI (SW-620 colon) was greater than 100 µM, the TGI (OVCAR-4 ovarian) was 58.8 µM and the TGI (SF-539 CNS) was greater than 74 µM. For the same compound, the TGI (MDA-MB-435) was greater than 100 µM, the TGI (UO-31 renal) was greater than 100 µM and the TGI (K-562 leukemia) was greater than 100 µM. The TGI (HOP-62 NSCLC) was greater than 86.1 µM, the TGI (DMS 273 small cell lung) was greater than 100 µM and the TGI (OVCAR-3 ovarian) was greater than 100 µM. The TGI (RPMI-8226 leukemia) was greater than 100 µM, the TGI (SF-295 CNS) was 53.3 µM and the TGI (NCI/ADR-RES ovarian) was greater than 100 µM. It also gave a TGI (A549 NSCLC) greater than 100 µM, a TGI (A498 renal) of 7.36 µM and a TGI (SK-MEL-2 melanoma) greater than 100 µM. The TGI (NCI-H460 lung) was greater than 100 µM, the TGI (M19-MEL melanoma) was greater than 100 µM and the TGI (HS 578T breast) was greater than 83.6 µM. The TGI (OVCAR-8 ovarian) was greater than 100 µM, the TGI (OVCAR-5 ovarian) was greater than 100 µM and the TGI (IGROV1 ovarian) was greater than 100 µM. For the same compound, the TGI (RXF-631 renal) was greater than 85.2 µM, the TGI (CAKI-1 renal) was greater than 100 µM and the TGI (MDA-N) was greater than 100 µM. The TGI (UACC-257 melanoma) was greater than 100 µM, the TGI (SK-MEL-5 melanoma) was 83 µM and the TGI (MALME-3M melanoma) was 75.9 µM. The TGI (SNB-19 CNS) was greater than 91.5 µM, the TGI (MCF7 breast) was greater than 100 µM and the TGI (SK-MEL-28 melanoma) was greater than 100 µM. The TGI (HL-60(TB) leukemia) was greater than 100 µM, the TGI (LXFL 529 NSCLC) was greater than 100 µM and the TGI (CCRF-CEM leukemia) was greater than 100 µM. For the same compound, the TGI (DMS 114 small cell lung) was greater than 100 µM, the TGI (MDA-MB-231 breast) was greater than 95.5 µM and the TGI (DU-145 prostate) was greater than 100 µM. The TGI (KM12 colon) was greater than 100 µM, the TGI (NCI-H522 lung) was greater than 92 µM and the TGI (HCT-116 colon) was greater than 100 µM. The TGI (LOX IMVI melanoma) was greater than 100 µM.
